Measured values: patent US5776892A, “Anti-inflammatory peptides” (Curative Health Services, Inc., priority 1994, dated 1998)
No end group written: not given here.

System: DNCB-induced delayed-type hypersensitivity
Experiment: Delayed-type hypersensitivity to DNCB, ear thickness
Type: in vivo, mouse
Protocol: CT-112 (SEQ. ID NO: 1) was tested for its ability to modulate the immune response in a mouse model of delayed hypersensitivity (Filipp et al., 1984, Allergy, 39: 499-507; Diezel et al., 1989 J. Invest. Dermatol. 93:322-326). The mice used in this study were 8-wk old hairless females (Jackson Laboratories). The mice were sensitized to a contact allergen (1-chloro-2,4-dinitrobenzene, DNCB) by painting the dorsothoracic region twice daily for 5 consecutive days with 50 μl of 0.5% DNCB in 75% acetone:25% vegetable oil. The animals were allowed to rest for 24 hr prior to challenge with DNCB. On the sixth day after initiation of the sensitization treatments, the animals were challenged with 50 μl of DNCB solution applied to the left ear. After 24 hrs, the ear thickness was determined and compared to the unchallenged ear.
The treatment groups were as follows:
b) Prednisone (intraperitoneal injection of 25 mg/kg, 2 hr prior to challenge);
d) CT-112 (intraperitoneal injections of 60 mg/kg/injection at 3, 1, and 0.25 hr prior to challenge and 3, 6 and 21 hr post-challenge);
e) DMSO control (topical application of 50 μl at 3, 1 and 0.25 hr prior to challenge; and
f) CT-112 in DMSO (20 mg/ml, topical application of 50 μl at 3, 1, and 0.25 hr prior to challenge and 3, 6 and 21 hr post-challenge).

[1] = ip 60 mg/kg/injection at 3, 1, 0.25 hr prior and 3, 6, 21 hr post-challenge
[2] = topical 50 μl of 20 mg/ml in DMSO at 3, 1, 0.25 hr prior and 3, 6, 21 hr post-challenge

TTSQVRPR [CT-112, octapeptide derived from platelet factor 4]
% Inhibition of Inflammation (7-day pump, 60 mg/kg/24 hr): 79.7%
Thickness Difference (Left-Right) (7-day pump, 60 mg/kg/24 hr): 0.00087 ± 0.000398 in
% Inhibition of Inflammation [1]: 68.4%
Thickness Difference (Left-Right) [1]: 0.00169 ± 0.000643 in
% Inhibition of Inflammation [2]: 18.2%
Thickness Difference (Left-Right) [2]: 0.0035 ± 0.000408 in
